Experimental data published in patent US20260345584A1, “METHODS AND PHARMACEUTICAL COMPOSITIONS FOR TREATING CHEMOTHERAPY-INDUCED PERIPHERAL NEUROPATHY WITH EG5 INHIBITORS” (UNIVERSITY OF MIAMI, priority 2023, published 2026).

How the values were obtained:
skin gene expression = assay: Human skin RNAseq of paclitaxel-treated CIPN patients; type: in vivo
Experimental: Neurological history, examination, and QLQ-CIPN20 quality of life questionnaire, which has been validated to detect the presence of CIPN (Postma et al., 2005, Eur J Cancer 41: 1135-1139), was completed in all subjects. Consent was given to obtain two skin punch biopsies of approximately 4 mm diameter. These were collected 10 cm proximal to the lateral malleolus on the distal leg as described previously (Engelstad et al., 2012, Neurology 79: 2187-2193). The biopsies were carried out under anesthesia following local injection of 2% lidocaine with epinephrine, using a sterile technique. In addition, three healthy volunteers of similar age and same gender (female) were recruited as controls. […] Sequence reads were trimmed to remove possible adapter sequences and nucleotides with poor quality using Trimmomatic v.0.36. The trimmed reads were mapped to the Homo sapiens GRCh38 reference genome available on ENSEMBL using the STAR aligner v.2.5.2b. The STAR aligner was a splice aligner that detects splice junctions and incorporates them to help align the entire read sequences. […] Unique gene hit counts were calculated by using featureCounts from the Subread package v.1.5.2. […] Only unique reads that fell within exon regions were counted. If a strand-specific library preparation was performed, the reads were strand-specifically counted. […]

Eg5 = Eg5 / phospho-Eg5 staining in mouse skin; type: in vivo; settings: single injection, 20 mg/kg; basal and suprabasal keratinocytes
Experimental: The mice in each cage were randomly allocated to different treatment groups. Food and water were available ad libitum and experiments were performed during the light cycle (7:00 am to 7:00 pm). Animals were euthanized via CO2 asphyxiation, followed by cervical dislocation. […] The animal's husbandry conformed with established NIH and Institutional Animal Care and Use Committee (IACUC) approved protocols.
Paws and back skin were collected at predetermined time points, placed in 10% formalin, and stored overnight at 4 °C. Samples were embedded in paraffin and sectioned at 7 μm, deparaffinized, washed with PBS, and incubated at room temperature for 5 min in 0.1% Triton X-100 in PBS and then blocked for 30 min (5% BSA). Sections were incubated with primary antibody diluted in blocking solution, overnight at 4 °C in a humidity chamber. Following PBS washes, sections were incubated for 1 h at room temperature with a secondary antibody. Tissues were mounted and assessed for staining. Antibodies used were against detyrosinated tubulin Millipore AB3201, p-KIF11 Invitrogen PA5-38647, alpha-tubulin Proteintech 66031-1-Ig, mouse Alexa Fluor 488 Invitrogen A21202, and rabbit Alexa flour 546 Invitrogen A10040. DAPI was used for nuclei counterstaining. […]

Compound: CC(=O)O[C@H]1C(=O)[C@@]2(C)[C@H]([C@H](OC(=O)c3ccccc3)[C@]3(O)C[C@H](OC(=O)[C@H](O)[C@@H](NC(=O)c4ccccc4)c4ccccc4)C(C)=C1C3(C)C)[C@]1(OC(C)=O)CO[C@@H]1C[C@@H]2O [paclitaxel]
- KIF11 expression (skin gene expression; CIPN patients after paclitaxel vs controls): upregulated in all three patients
- NOX1 and CYBB expression (skin gene expression; CIPN patients after paclitaxel vs healthy controls): most highly upregulated genes
- total and phospho-Eg5 levels (Eg5): increased total and phospho-Eg5 levels
